US20220040255A1, “CHEMOTHERAPEUTIC REMODELING OF THE GUT MICROBIOME” (THE SCRIPPS RESEARCH INSTITUTE, priority 2018, published 2022)
Where a SMILES comes first, the peptide text is derived from it. [ ]: non-standard residue; d: D form.

Assays:
[1] = system: gut microbiota; experiment: in vivo remodeling of the gut microbiome (feces 16S rRNA sequencing); design: species or system LDLr−/− mice; settings: for overall microbiota alpha diversity: in vivo, 10-week study, peptide treatment; for time within which the Bacteroidetes/Firmicutes ratio increased relative to the vehicle WD-fed group: oral in drinking water, ~35 mg/kg/day, WD-fed LDLr−/− mice
Method: (§1) Animals and diets. LDL receptor-null (LDLr^−/−) mice on a C57BL/6J background were initially purchased from Jackson Laboratories (Bar Harbor, Me.) and were bred in house. Unless otherwise noted, all experiments were performed with 8-12 weeks old LDLr^−/− female mice. For studies involving analysis of the gut microbiome, the mice were rotated between cages and co-housed with the mice from different groups for at least one week before the beginning of each study to reduce the variation in the composition of gut microbiome caused by the housing environment. The mice were weaned at 4 weeks of age and were fed ad libitum a standard chow diet (Harlan Teklad 7019) until they were 10-weeks old, when they were switched to a high-fat diet (WD) containing 15.8% (wt/wt) fat, 1.25% (wt/wt) cholesterol, and no cholate (Harlan Teklad 94059). At the time that the WD was started, the cyclic peptide was added to the drinking water at a dose of 180 μM and the mice (female, n=8 per dosing group) were continued on WD for 10 weeks. The lyophilized peptide was dissolved in PBS (pH 7.4) containing 1% sucrose, resulting in a clear solution. The drinking water solution was replaced with fresh solution daily for c[wLwReQeR] (SEQ ID NO:11) or every other day for c[wLwKhShK] (SEQ ID NO:1). A control group of eight mice (female, n=8) was fed WD and provided vehicle (PBS with 1% sucrose) drinking water. The mice consumed approximately 4.0 mL of water per day per mouse, and there was no significant difference in water or food consumption between groups. All procedures involving live animals were approved by the Scripps Research Institute Institutional Animal Care and Use Committee.
Feces sample collection and DNA extraction. The feces samples were freshly collected after 2, 6, and 10 weeks of treatment, snap-frozen, and stored at −80° C. Microbial genomic DNA was isolated with PowerSoil DNA isolation kit by following manufacturer's instructions (Mo Bio).
16S rRNA gene sequencing and processing. PCR amplicons of the V3-V4 16S rRNA region were amplified and sequenced using an Illumina MiSeq platform. For each sample, duplicate 25 μl PCR reactions were performed, each containing 50 ng of purified DNA, 12.5 μl 2×KAPA HiFi HotStart ReadyMix (Kapa biosystem), and 0.15 μM of each primer designed to amplify the V3-V4 region:
16S rRNA gene sequencing data analysis. We used custom python scripts to demultiplex sequencing reads based on the second barcode index and remove PCR duplication artifacts found using unique molecular identifiers prior to analyzing sequences using MOTHUR (version 1.36.1). […] Briefly, contigs were generated by combining forward and reverse paired-end reads. […] We performed a pre-clustering step to cluster reads up to 2 bp apart and removed all chimeric sequences. […]

[2] = plasma cholesterol and lipoprotein profile; assay type: in vivo, LDLr−/− mice; settings: for reduction in cholesterol in the CHD mice: CHD-fed mice; for HDL-cholesterol levels / levels of VLDL and LDL / reduction of plasma total cholesterol compared to the untreated WD group: WD; for HDL-cholesterol levels / levels of VLDL and LDL: peptide-treated animals; for reduction of plasma total cholesterol compared to the untreated WD group: two-week time point, oral administration
Method: as §1
Measurement of plasma cholesterol and liver enzyme activities. The mice were bled after an overnight fast after 2 and 10 weeks of treatment. The plasma samples were used to determine lipoprotein profiles and the levels of cholesterol, alanine aminotransferase (ALT), and aspartate aminotransferase (AST). Measurements of plasma levels of cholesterol, ALT, and AST were performed as described in Zhao et al., ACS Cent. Sci. 3, 639-646, 2017. Briefly, plasma was separated from whole blood immediately by centrifugation of the blood samples at 5,000 rpm for 10 min at 4° C., and was then stored at −80° C. Plasma total cholesterol was measured using an enzymatic fluorometric method kit (Amplex® red cholesterol assay kit, No. A12216, Life Technologies) according to the manufacturer's instructions. Plasma ALT and AST concentrations were measured using Infinity ALT (GPT) and AST (GOT) liquid stable assays, respectively, which are colorimetric kinetic assays (Thermo Scientific). Assays were performed in accordance with the manufacturer's recommendations, adjusting the reagent volumes (20 μL plasma+200 μL reagent, 0.69 cm light pathlength of the solution in the well) for analysis of samples in 96-well flat-bottom microplate format.
Plasma lipoprotein profile. Pooled plasma (240 μL total, 30 μL from each, n=8 fasted mice per group) from the two-week blood draw was used for fast protein liquid chromatography (FPLC) analysis. Lipoproteins were separated by using 3 Superdex 200 10/30 columns connected in series (GE Healthcare). The plasma was centrifuged at 11,000 rpm for 10 min at room temperature to remove particulates (floating material was gently mixed into liquid before removing the supernatant for FPLC injection). 200 μL of the pooled plasma was injected on the system eluted with 10 mM tris-HCl buffer, pH 7.4, containing 1 mM EDTA and 150 mM NaCl; a flow rate of 0.5 ml/min and fraction size of 0.5 mL were used.

[3] = system: Foxp3+ regulatory T cell (Treg) population; experiment: quantification of regulatory T cells in lamina propria; assay type: in vivo, mice
Description: Quantification of regulatory T cells. Lamina propria (LP) immune cells from the small intestine were isolated using lamina propria dissociation kit (Miltenyi Biotec) following the manufacturer's instruction. All antibodies and flow cytometry reagents were obtained from Thermo Fisher. We used FITC anti-CD4 (RM4-5), PE anti-Foxp3 (FJK-16s), PE-Cyanine 7 anti-GATA3 (TWAJ), APC anti ROR gamma t (AFKJS-9), APC-efluor780 anti-Helios (22F6) and e-fluor 450 anti-CD3 (17A2) antibodies. To block non-antigen specific binding of immunoglobulins and discriminate live from dead cells, LP cell suspensions were incubated with mouse BD Fc block (BD Biosciences) and e-fluor 506 fixable viability dye (Thermo Fisher) for 30 minutes on ice. For surface staining, the cells were incubated with antibodies for 25 min, washed and fixed in fixation/permeabilization solution (Thermo Fisher). After being washed with transcription factor wash buffer (Thermo Fisher), cells were stained intracellularly for 45 min at room temperature, washed, and resuspended in PBS. Samples were read in a FACs canto analyzer (BD Biosciences) and analyzed with FACs Diva software v 8.0 (BD Biosciences). Total LP cell numbers were quantified to calculate regulatory T cell ratios. Flow Jo v10 software was used for dot plots generation and final analysis.

[4] = wild-type and LDLr−/− mice fed a WD

Compound	overall microbiota alpha diversity [1]	time within which the Bacteroidetes/Firmicutes ratio increased relative to the vehicle WD-fed group [1]	reduction in cholesterol in the CHD mice [2]	HDL-cholesterol levels [2]	levels of VLDL and LDL [2]	reduction of plasma total cholesterol compared to the untreated WD group [2]	composition of Foxp3+ regulatory T cell (Treg) population [3]	Helios+/RORγt+ Treg ratio [3, 4]	Helios+/Th17 ratio [3, 4]
CC(C)C[C@@H]1NC(=O)[C@@H](Cc2c[nH]c3ccccc23)NC(=O)[C@H](CCCCN)NC(=O)[C@@H](Cc2c[nH]cn2)NC(=O)[C@H](CO)NC(=O)[C@@H](Cc2c[nH]cn2)NC(=O)[C@H](CCCCN)NC(=O)[C@@H](Cc2c[nH]c3ccccc23)NC1=O [c[wLwKhShK]] (cyclo([dW]L[dW]K[dH]S[dH]K))	unchanged	≤ 2 weeks	no analogous peptide-mediated reduction	higher	marked reduction	37%			
CC(C)C[C@@H]1NC(=O)[C@@H](Cc2c[nH]c3ccccc23)NC(=O)[C@H](CCCNC(=N)N)NC(=O)[C@@H](CCC(=O)O)NC(=O)[C@H](CCC(N)=O)NC(=O)[C@@H](CCC(=O)O)NC(=O)[C@H](CCCNC(=N)N)NC(=O)[C@@H](Cc2c[nH]c3ccccc23)NC1=O [c[wLwReQeR]] (cyclo([dW]L[dW]R[dE]Q[dE]R))	unchanged	≤ 6 weeks	no analogous peptide-mediated reduction	higher	marked reduction	36%	significantly altered	increased	increased
